Test results as given in patent US20080039362A1, “Combination drug therapy for reducing scar tissue formation” (Afmedica, Inc., priority 2006, published 2008).

Assays:
[1] = tested on: Human coronary artery endothelial cells (EC)
Method: Human peripheral blood monocytes were isolated by density centrifugation and magnetic separation (Miltenyi). Human platelets were purchased from the San Diego Blood Bank. Human coronary artery endothelial cells and aortic smooth muscle cells were purchased from Cambrex. Tissue culture polystyrene plates (TCPS; Falcon) with or without fibronectin coating (1 mg/ml) were used as controls.
Human coronary artery endothelial cells (EC) and aortic smooth muscle cells (SMC) were incubated on the polymers for 72 hours.

Human platelets = assay: Platelet adhesion and aggregation on surfaces; assay type: cell-based; conditions: 30 minutes exposure; FIG. 21
Method: Platelet aggregation, used as a marker of polymer hemocompatibility, was visualized using human platelets that were exposed to PEA and a fibrinogen-coated surface for 30 minutes.

Substance | toxic effects [1] | platelet adhesion and aggregation (Human platelets)
poly(ester amide) [PEA] | no toxic effects | –
fibrinogen | – | aggregated as expected
